This note sets out measurements from patent US20190359653A1, “SELECTIVE PEPTIDE INHIBITORS OF FRIZZLED” (Genentech, Inc., priority 2016, published 2019).

The test system of the assay is Herceptin. The experiment in a line: spot phage ELISA against Herceptin (off-target). As to conditions: for HERCEPTIN S/W: signal minus noise (BSA); for HERCEPTIN S/W / HERCEPTIN S/N: Table 5; for HERCEPTIN S/N: signal to noise ratio; for SIGNAL: NOISE RATIO HERCEPTIN: spot phage ELISA signal against Herceptin over ELISA signal against BSA, Tables 3 and 4. The format is binding. The method, then: Phage pools of linear peptide libraries (Stanger, K. et al. Allosteric peptides bind a caspase zymogen and mediate caspase tetramerization. Nat Chem Biol 8, 655-660 (2012)) were cycled through rounds of binding selections with hFZD7 CRD-Fc following standard protocols (Tonikian et al. (2007) Nat Protoc 2, 1368-1386). Herceptin (10 μM) was included in sorting solution to block potential Fc binders during all rounds of sorting. After four rounds of binding selection, individual phage clones were analyzed in a high-throughput spot phage ELISA using plate-immobilized FZD7 CRD-Fc as target or off-target for specificity test (hFZD8 CRD-Fc and Herceptin). To measure off-target affinity, duplicate phage particle were assayed against BSA to measure non-specific binding. Clones with a phage-binding signal >0.5 and signal-to-noise ratio >10 were considered to be positive clones and were subjected to DNA sequence analysis. General data handling was done using Microsoft Excel 2010 unless otherwise noted.
In order to investigate the role of FZD7 in intestinal stem cell function, experiments were performed to identify ligands that selectively bind FZD7 CRD. A naïve linear peptide library (4-16 amino acids in length) and a cyclic peptide library were screened via phage display against FZD7 CRD-Fc. Peptides found to bind FZD7 CRD-Fc were then screened via spot phage ELISA against FZD7 CRD-Fc, FZD8 CRD-Fc, and Herceptin to identify candidates that bind FZD7 CRD but not FZD8 CRD or herceptin. The amino acid sequences of candidate FZD7 CRD-binding linear peptides are shown in Table 3 below, and the amino acid sequences of candidate FZD7 CRD-binding cyclic peptides are shown in Table 4.
Briefly, sixty Fz7-21-derived peptides (see Table 5), each containing at least one random alanine and/or valine/and/or aspartic acid and/or serine substitution, were generated and screened via spot phage ELISA (i.e., as described above) against FZD7 CRD-Fc and Herceptin.

Turning to 57 (AAADDLAAWCDVMY) [compound 57], the “HERCEPTIN S/W” value is on record as 0.0 and the “HERCEPTIN S/N” value came to 1.4.
In the case of 69 (VPSADLESWCHVMY) [compound 69], the “HERCEPTIN S/W” value is 0.0 and the “HERCEPTIN S/N” value is reported as 1.6.
The matching figures for 42 (APSDDVAFWCHVMY) [compound 42]: 0.0 and 1.6.
72 (APADDLEFWCHVMY) [compound 72]: the “HERCEPTIN S/W” value is 0.0 and the “HERCEPTIN S/N” value came out at 1.2.
Turning to 7 (FWMLLQEGFAFWFP) [compound 7], the “SIGNAL: NOISE RATIO HERCEPTIN” value came to 1.3.
Consider 12 (PPNVHEGCWSMFPW) [compound 12], for which the “SIGNAL: NOISE RATIO HERCEPTIN” value is recorded as 1.1.
For 61 (APADDLASWCHVMY) [compound 61], the “HERCEPTIN S/W” value was found to be 0.0 and the “HERCEPTIN S/N” value is 1.3.
With 93 (AAADDLAFWCDVMY) [compound 93], the “HERCEPTIN S/W” value is recorded as -0.2 and the “HERCEPTIN S/N” value came to 0.4.
Taken in the same sequence, the figures for 50 (AASDDLESWCHVMY) [compound 50] were 0.0 and 1.2.
Take 70 (AASDDLEAWCHVMY) [compound 70]: the “HERCEPTIN S/W” value stood at 0.0 and the “HERCEPTIN S/N” value is given as 1.4.
On to 3 (PQDLLDWCHYMIVSSD) [compound 3], for which the “SIGNAL: NOISE RATIO HERCEPTIN” value worked out at 1.2.
For 92 (LPADDLAFWCDVMY) [compound 92], the “HERCEPTIN S/W” value is reported as 0.0 and the “HERCEPTIN S/N” value is listed as 0.7.
As to 26 (FCENPYIICW) [compound 26], the “SIGNAL: NOISE RATIO HERCEPTIN” value was determined as 1.1.
As to 54 (AAADDLEVWCHVMY) [compound 54], the “HERCEPTIN S/W” value turned out to be 0.0 and the “HERCEPTIN S/N” value is reported as 1.4.
With 96 (APADDLESWCHVMY) [compound 96], the “HERCEPTIN S/W” value came to 0.1 and the “HERCEPTIN S/N” value turned out to be 2.1.
68 (VPSDDLASWCHVMY) [compound 68]: the “HERCEPTIN S/W” value came out at 0.0 and the “HERCEPTIN S/N” value amounted to 1.4.
The matching figures for 82 (LPAADLAAWCHVMY) [compound 82]: 0.0 and 1.2.
Taken in the same sequence, the figures for 44 (APSDDLEFWCHVMY) [compound 44] were 0.0 and 1.3.
For 30 (LSSGKKVSSYWFNFWF) [compound 30], the “SIGNAL: NOISE RATIO HERCEPTIN” value amounted to 3.8.
As for 46 (APSDDLEFWCHAMY) [compound 46], the “HERCEPTIN S/W” value turned out to be 0.0 and the “HERCEPTIN S/N” value turned out to be 1.3.
For the substance 49 (AASDDLAAWCHVMY) [compound 49], the “HERCEPTIN S/W” value stood at 0.0 and the “HERCEPTIN S/N” value was 1.8.
66 (VPADALAVWCDVMY) [compound 66]: the “HERCEPTIN S/W” value was 0.0 and the “HERCEPTIN S/N” value was 1.3.
The matching figures for 55 (VAADALEFWCHVMY) [compound 55]: 0.0 and 1.3.
The matching figures for 39 (VAADDLAAWCHVMY) [compound 39]: 0.0 and 1.4.
Turning to 89 (APADDLEFWCHAMY) [compound 89], the “HERCEPTIN S/W” value amounted to 0.0 and the “HERCEPTIN S/N” value came out at 1.4.
Taken in the same sequence, the figures for 43 (APADDVEFWCHVMY) [compound 43] were 0.0 and 1.8.
As for 4 (ACSYVIDLWNQCLT) [compound 4], the “SIGNAL: NOISE RATIO HERCEPTIN” value came to 1.1.
Same read-out and setting: then 10 (ASELHDWCRMMFPW) [compound 10], with 1.2; and 36 (FDFCTVMPHFIYCPGD) [compound 36], with 1.13; and 34 (HLSDVCCSDWCDLVFW) [compound 34], with 0.99.
Still for that read-out and setting: then 8 (FELLLDLGDLIRLW) [compound 8], with 1.8.
As for 52 (LPADDLAVWCDVMY) [compound 52], the “HERCEPTIN S/W” value is 0.0 and the “HERCEPTIN S/N” value was 1.5.
